Data reported in ChEMBL document CHEMBL1201862, “PubChem BioAssay data set” (2004).
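1) Cells in 96-well plates. 2) Compound, 48 h, 5 concentrations. 3) Linear interpolation between surrounding doses. 4) Unreached endpoint = highest concentration. Here, GI50 denotes the concentration required for 50% inhibition of growth.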 Activity calls are given as the source filed them. No stated cut-off is given here; in the data, active = GI50 up to about 1.1 µM and inactive = higher.

Legend:
Test in all cases: NCI anticancer screen, dose series, 48 h
NCI-H23 = test system: NCI-H23
NCI-H460 = test system: NCI-H460
HCT-15 = test system: HCT-15
K562 = test system: K562
A549 = test system: A549
EKVX = test system: EKVX
SF-295 = test system: SF-295
A498 = test system: A498
IGROV-1 = test system: IGROV-1
SK-MEL-28 = test system: SK-MEL-28
U-251 = test system: U-251
TK-10 = test system: TK-10
SK-MEL-2 = test system: SK-MEL-2
MOLT-4 = test system: MOLT-4
OVCAR-4 = test system: OVCAR-4
SF-539 = test system: SF-539
RXF 393 = test system: RXF 393

SMILES | GI50 (NCI-H23) | GI50 (NCI-H460) | GI50 (HCT-15) [µM] | GI50 (K562) | GI50 (A549) | GI50 (EKVX) | GI50 (SF-295) | GI50 (A498) | GI50 (IGROV-1) | GI50 (SK-MEL-28) | GI50 (U-251) | GI50 (TK-10) | GI50 (SK-MEL-2) | GI50 (MOLT-4) | GI50 (OVCAR-4) | GI50 (SF-539) | GI50 (RXF 393)
O=c1[nH]c(=O)n([C@@H]2C[C@H](CO)[C@H](O)C2)cc1/C=C/Br | > 100 µM (inactive) | > 100 µM (inactive) | > 100 | > 100 µM (inactive) | > 100 µM (inactive) | > 100 µM (inactive) | > 100 µM (inactive) | > 100 µM (inactive) | > 100 µM (inactive) | > 100 µM (inactive) | > 100 µM (inactive) | > 100 µM (inactive) | > 100 µM (inactive) | > 100 µM (inactive) | > 100 µM (inactive) | > 100 µM (inactive) | 
COC1CCC(OS(C)(=O)=O)C(CO)O1 (centres undefined) | > 100 µM (inactive) | > 100 µM (inactive) | > 100 | > 100 µM (inactive) | > 100 µM (inactive) | > 100 µM (inactive) | > 100 µM (inactive) |  | > 100 µM (inactive) | > 100 µM (inactive) | > 100 µM (inactive) | > 100 µM (inactive) | > 100 µM (inactive) | > 100 µM (inactive) |  | > 100 µM (inactive) | > 100 µM (inactive)
CS/C(=N\c1ccccc1Cl)NC(=O)c1ccc(Br)cc1 | > 100 µM (inactive) | > 100 µM (inactive) | > 100 | 14.9 µM (inactive) | 55.8 µM (inactive) | > 100 µM (inactive) | 59.3 µM (inactive) |  | 62.8 µM (inactive) | 25.9 µM (inactive) | 39.5 µM (inactive) | 28.2 µM (inactive) | 66.7 µM (inactive) | 18.5 µM (inactive) | 18.2 µM (inactive) | 37.2 µM (inactive) | 31.3 µM (inactive)
CC12CCC(=O)C[C@H]1CCC(OC=O)C2Br (some centres undefined) | > 100 µM (inactive) | > 100 µM (inactive) | > 100 | > 100 µM (inactive) | > 100 µM (inactive) |  | > 100 µM (inactive) | > 100 µM (inactive) | > 100 µM (inactive) | > 100 µM (inactive) | > 100 µM (inactive) | > 100 µM (inactive) | > 100 µM (inactive) | > 100 µM (inactive) | > 100 µM (inactive) | > 100 µM (inactive) | 
O=C1C(Cl)C(c2ccccc2O)N1n1cnc2ccccc2c1=O (centres undefined) | 49 µM (inactive) | 35.2 µM (inactive) | 2.99 | 58.1 µM (inactive) | 63.1 µM (inactive) | 23.9 µM (inactive) | 53.6 µM (inactive) |  | 61.7 µM (inactive) | 70.1 µM (inactive) | 43.3 µM (inactive) | > 100 µM (inactive) | > 100 µM (inactive) | 27.6 µM (inactive) | 23.7 µM (inactive) |  | 22.7 µM (inactive)
O=c1cc(-c2ccccc2)nc(/C=C(\O)c2ccncc2)n1-c1ccccc1 | > 100 µM (inactive) | > 100 µM (inactive) | > 100 | > 100 µM (inactive) | > 100 µM (inactive) | > 100 µM (inactive) | > 100 µM (inactive) | > 100 µM (inactive) | > 100 µM (inactive) | > 100 µM (inactive) | > 100 µM (inactive) | > 100 µM (inactive) | > 100 µM (inactive) |  | > 100 µM (inactive) | > 100 µM (inactive) | > 100 µM (inactive)
N#CC(c1ccccn1)c1nc2ccccc2[nH]1 (centres undefined) | > 100 µM (inactive) | 85.5 µM (inactive) |  | > 100 µM (inactive) | > 100 µM (inactive) | > 100 µM (inactive) | > 100 µM (inactive) | > 100 µM (inactive) |  | > 100 µM (inactive) | > 100 µM (inactive) | > 100 µM (inactive) | > 100 µM (inactive) | 47.5 µM (inactive) | 81.1 µM (inactive) |  | 
OCC(O)C(OC1OC(CO)C(O)C(O)C1O)c1nn(-c2ccc(F)cc2)c2nc3cc(Cl)c(Cl)cc3cc12 (centres undefined) | > 100 µM (inactive) | > 100 µM (inactive) | > 100 | > 100 µM (inactive) |  | > 100 µM (inactive) | > 100 µM (inactive) | > 100 µM (inactive) |  | > 100 µM (inactive) | > 100 µM (inactive) | > 100 µM (inactive) |  | > 100 µM (inactive) | > 100 µM (inactive) | > 100 µM (inactive) | > 100 µM (inactive)
CCNC(=O)COc1ccc(Cl)cc1Cl | > 100 µM (inactive) | > 100 µM (inactive) | > 100 | > 100 µM (inactive) | > 100 µM (inactive) | 55.7 µM (inactive) | > 100 µM (inactive) | > 100 µM (inactive) | > 100 µM (inactive) | > 100 µM (inactive) | > 100 µM (inactive) |  | > 100 µM (inactive) | > 100 µM (inactive) |  | > 100 µM (inactive) | 
ClCc1ccc(C2OCCO2)cc1 | 12.2 µM (inactive) | 19.2 µM (inactive) | 16.7 | > 31.6 µM (inactive) | > 51.4 µM (inactive) | > 43.2 µM (inactive) | 17.9 µM (inactive) | 20.8 µM (inactive) | > 72.4 µM (inactive) | > 40.7 µM (inactive) | 12.2 µM (inactive) | > 49 µM (inactive) | 21.1 µM (inactive) | 13.8 µM (inactive) |  | > 42.3 µM (inactive) | > 45.7 µM (inactive)
COc1ccc2[nH]c3c4c(c5cc(C(C)(C)C)ccc5c3c2c1)C(=O)N(c1ccccc1)C4=O | > 100 µM (inactive) | > 100 µM (inactive) |  | > 100 µM (inactive) | > 100 µM (inactive) | > 100 µM (inactive) | > 100 µM (inactive) | 24.9 µM (inactive) | > 100 µM (inactive) | > 100 µM (inactive) | 27.7 µM (inactive) | 60.5 µM (inactive) | > 100 µM (inactive) | > 100 µM (inactive) | > 100 µM (inactive) | 21.7 µM (inactive) | > 100 µM (inactive)
Cc1ccc(NC(=O)NC23CC4CC(CC(F)(C4)C2)C3)cc1 | 99.3 µM (inactive) | > 100 µM (inactive) |  | 44.6 µM (inactive) | > 100 µM (inactive) | 92.3 µM (inactive) |  | > 100 µM (inactive) | > 100 µM (inactive) | > 100 µM (inactive) | > 100 µM (inactive) | > 100 µM (inactive) | > 100 µM (inactive) | 40.6 µM (inactive) |  | > 100 µM (inactive) | > 100 µM (inactive)
COc1ccc(C(C2=C(O)CC(C)OC2=O)C2=C(O)CC(C)OC2=O)cc1 (centres undefined) | > 100 µM (inactive) | > 100 µM (inactive) | > 100 | > 100 µM (inactive) | > 100 µM (inactive) | > 100 µM (inactive) | > 100 µM (inactive) |  | > 100 µM (inactive) | > 100 µM (inactive) | > 100 µM (inactive) |  | > 100 µM (inactive) | > 100 µM (inactive) | > 100 µM (inactive) | > 100 µM (inactive) | 
O=C1C2=C(CCCCC2)C2CCCCC12O (centres undefined) | > 100 µM (inactive) | > 100 µM (inactive) |  | > 100 µM (inactive) | > 100 µM (inactive) | > 100 µM (inactive) | > 100 µM (inactive) |  | > 100 µM (inactive) | > 100 µM (inactive) | > 100 µM (inactive) | > 100 µM (inactive) | > 100 µM (inactive) | > 100 µM (inactive) |  | > 100 µM (inactive) | > 100 µM (inactive)
CC1OC(n2cc(C(F)(F)F)c(=O)[nH]c2=O)C=CC1=O (centres undefined) | 18.2 µM (inactive) | 23.5 µM (inactive) | 20.7 | 27.5 µM (inactive) | 47.3 µM (inactive) |  | 27.6 µM (inactive) |  | 20 µM (inactive) | 21 µM (inactive) | > 10 µM (inactive) | 20.9 µM (inactive) | 18.2 µM (inactive) | 22.6 µM (inactive) | 13.4 µM (inactive) | 18.9 µM (inactive) | 
NC1=NN(c2ccccc2)C(=O)C1C(=O)CCC(=O)Nc1cccc(Cl)c1 (centres undefined) | > 100 µM (inactive) | > 100 µM (inactive) | > 100 | > 100 µM (inactive) | > 100 µM (inactive) | > 100 µM (inactive) | > 100 µM (inactive) | > 100 µM (inactive) | > 100 µM (inactive) | > 100 µM (inactive) | > 100 µM (inactive) | > 100 µM (inactive) | > 100 µM (inactive) |  | > 100 µM (inactive) | > 100 µM (inactive) | > 100 µM (inactive)
O=C(N/C(=C\c1ccc([N+](=O)[O-])cc1)c1nc2cc(Cl)ccc2[nH]1)c1ccccc1 | 18.1 µM (inactive) |  | 13.3 | 12.8 µM (inactive) | 20.8 µM (inactive) | 29.4 µM (inactive) | 23.8 µM (inactive) |  | 16.9 µM (inactive) | 22.9 µM (inactive) | 15.5 µM (inactive) | 32.4 µM (inactive) | 21.9 µM (inactive) | 10.1 µM (inactive) | 15.7 µM (inactive) | 19.1 µM (inactive) | 21 µM (inactive)
COC(c1ccccc1)C(c1ccccc1)N1CCOCC1 (centres undefined) | > 100 µM (inactive) | > 100 µM (inactive) |  | > 100 µM (inactive) | > 100 µM (inactive) | > 100 µM (inactive) | > 100 µM (inactive) | > 100 µM (inactive) | > 100 µM (inactive) | > 100 µM (inactive) | > 100 µM (inactive) | > 100 µM (inactive) | > 100 µM (inactive) | > 100 µM (inactive) | > 100 µM (inactive) | > 100 µM (inactive) | > 100 µM (inactive)
Cc1ccccc1NC(=O)/C=N/O | > 100 µM (inactive) |  | > 100 | > 100 µM (inactive) | > 100 µM (inactive) | 22 µM (inactive) | > 100 µM (inactive) | > 100 µM (inactive) | > 100 µM (inactive) | > 100 µM (inactive) | > 100 µM (inactive) | > 100 µM (inactive) | > 100 µM (inactive) | > 100 µM (inactive) | > 100 µM (inactive) |  | > 100 µM (inactive)
